PubChem BioAssay (NCI)
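Growth conditions: 96-well plates. Treatment: test compound, 48 hours, 5 concentrations. Analysis: linear interpolation between bracketing concentrations; unreached endpoints set to highest concentration. GI50 is the concentration that inhibits growth by half. The concentration for full growth arrest is given as TGI.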

Assays:
Assay in all cases: DTP human tumour cell line panel, 48 h
[1] = test system: 786-0 renal
[2] = test system: A498 renal
[3] = test system: A549 NSCLC
[4] = test system: ACHN renal
[5] = test system: BT-549 breast
[6] = test system: CAKI-1 renal
[7] = test system: CCRF-CEM leukemia
[8] = test system: COLO 205 colon
[9] = test system: DU-145 prostate
[10] = test system: EKVX NSCLC
[11] = test system: HCC-2998 colon
[12] = test system: HCT-116 colon
[13] = test system: HCT-15 colon
[14] = test system: HOP-62 NSCLC
[15] = test system: HOP-92 NSCLC
[16] = test system: HS 578T breast
[17] = test system: HT29 colon
[18] = test system: IGROV1 ovarian
[19] = test system: K-562 leukemia
[20] = test system: KM12 colon
[21] = test system: LOX IMVI melanoma
[22] = test system: M14 melanoma
[23] = test system: MALME-3M melanoma
[24] = test system: MCF7 breast
[25] = test system: MDA-MB-231 breast
[26] = test system: MDA-MB-435
[27] = test system: MOLT-4 leukemia
[28] = test system: NCI-H226 lung
[29] = test system: NCI-H23 lung
[30] = test system: NCI-H460 lung
[31] = test system: NCI-H522 lung
[32] = test system: OVCAR-3 ovarian
[33] = test system: OVCAR-4 ovarian
[34] = test system: OVCAR-5 ovarian
[35] = test system: OVCAR-8 ovarian
[36] = test system: PC-3 prostate
[37] = test system: RPMI-8226 leukemia
[38] = test system: RXF 393 renal
[39] = test system: SF-268 CNS
[40] = test system: SF-295 CNS
[41] = test system: SF-539 CNS
[42] = test system: SK-MEL-2 melanoma
[43] = test system: SK-MEL-28 melanoma
[44] = test system: SK-MEL-5 melanoma
[45] = test system: SK-OV-3 ovarian
[46] = test system: SN12C renal
[47] = test system: SNB-19 CNS
[48] = test system: SNB-75 CNS
[49] = test system: SW-620 colon
[50] = test system: T-47D breast
[51] = test system: TK-10 renal
[52] = test system: U251 CNS
[53] = test system: UACC-257 melanoma
[54] = test system: UACC-62 melanoma
[55] = test system: UO-31 renal
[56] = test system: HL-60(TB) leukemia
[57] = test system: NCI/ADR-RES ovarian

O=C(NN1C(=O)CSC12CCCCC2)c1[nH]c2ccc(Br)cc2c1-c1ccccc1
GI50 [1]: 18.9 µM | TGI [1]: 38.9 µM | GI50 [2]: 24.1 µM | TGI [2]: 60.5 µM | GI50 [3]: 15 µM | TGI [3]: 30.5 µM | GI50 [4]: 22.6 µM | TGI [4]: 58.1 µM | GI50 [5]: 20.1 µM | TGI [5]: 44.4 µM | GI50 [6]: 25.5 µM | TGI [6]: 80 µM | GI50 [7]: 19.6 µM | TGI [7]: 52.8 µM | GI50 [8]: 26.9 µM | TGI [8]: > 100 µM | GI50 [9]: 19.1 µM | TGI [9]: 38.8 µM | GI50 [10]: 48.2 µM | TGI [10]: > 100 µM | GI50 [11]: 25.2 µM | TGI [11]: 70.4 µM | GI50 [12]: 16.4 µM | TGI [12]: 35.3 µM | GI50 [13]: 17.1 µM | TGI [13]: 39.7 µM | GI50 [14]: 23.6 µM | TGI [14]: 51.4 µM | GI50 [15]: 20.7 µM | TGI [15]: 42.3 µM | GI50 [16]: 23.1 µM | TGI [16]: 66.1 µM | GI50 [17]: 13.9 µM | TGI [17]: 31.5 µM | GI50 [18]: 11.3 µM | TGI [18]: 28.6 µM | GI50 [19]: 13.4 µM | TGI [19]: 56.6 µM | GI50 [20]: 16.9 µM | TGI [20]: 33.4 µM | GI50 [21]: 22 µM | TGI [21]: 50.3 µM | GI50 [22]: 27 µM | TGI [22]: 79.7 µM | GI50 [23]: 20.3 µM | TGI [23]: 41.3 µM | GI50 [24]: 14.6 µM | TGI [24]: 31.5 µM | GI50 [25]: 20.4 µM | TGI [25]: 42.3 µM | GI50 [26]: 18.8 µM | TGI [26]: 48.9 µM | GI50 [27]: 8.79 µM | TGI [27]: 46.9 µM | GI50 [28]: 23 µM | TGI [28]: 55.7 µM | GI50 [29]: 19.4 µM | TGI [29]: 41.5 µM | GI50 [30]: 20.7 µM | TGI [30]: 57.9 µM | GI50 [31]: 18.7 µM | TGI [31]: 49.5 µM | GI50 [32]: 15.5 µM | TGI [32]: 29.4 µM | GI50 [33]: 13.3 µM | TGI [33]: 39.6 µM | GI50 [34]: 31.3 µM | TGI [34]: 95.5 µM | GI50 [35]: 16.3 µM | TGI [35]: 30.1 µM | GI50 [36]: 16.5 µM | TGI [36]: 32.2 µM | GI50 [37]: 12.7 µM | TGI [37]: 33.2 µM | GI50 [38]: 14.2 µM | TGI [38]: 30.3 µM | GI50 [39]: 20.3 µM | TGI [39]: 67.1 µM | GI50 [40]: 16.2 µM | TGI [40]: 31.9 µM | GI50 [41]: 21 µM | TGI [41]: 39.9 µM | GI50 [42]: 36.2 µM | TGI [42]: > 100 µM | GI50 [43]: 24.8 µM | TGI [43]: 69 µM | GI50 [44]: 31.2 µM | TGI [44]: > 100 µM | GI50 [45]: 46.3 µM | TGI [45]: > 100 µM | GI50 [46]: 17.6 µM | TGI [46]: 34.9 µM | GI50 [47]: 24.1 µM | TGI [47]: 64.2 µM | GI50 [48]: 15.9 µM | TGI [48]: 33.7 µM | GI50 [49]: 34.7 µM | TGI [49]: > 100 µM | GI50 [50]: 27.9 µM | TGI [50]: > 100 µM | GI50 [51]: 17 µM | TGI [51]: 33.2 µM | GI50 [52]: 15.8 µM | TGI [52]: 31.9 µM | GI50 [53]: 26.4 µM | TGI [53]: 72.5 µM | GI50 [54]: 10.9 µM | TGI [54]: 39.8 µM | GI50 [55]: 22.4 µM | TGI [55]: 68.9 µM

N#CC1(C(N)=O)C(c2ccc(Cl)cc2)CC(=O)CC1c1ccc(Cl)cc1 (stereo unspecified)
GI50 [1]: 17.1 µM | TGI [1]: 30.8 µM | GI50 [2]: 14.7 µM | TGI [2]: 27.8 µM | GI50 [3]: 18.1 µM | TGI [3]: 39.8 µM | GI50 [4]: 21.8 µM | TGI [4]: 57.8 µM | GI50 [5]: 14.6 µM | TGI [5]: 27.7 µM | GI50 [6]: 20.4 µM | TGI [6]: 55.9 µM | GI50 [7]: 21.5 µM | TGI [7]: 63.5 µM | GI50 [8]: 15.6 µM | TGI [8]: 30.4 µM | GI50 [9]: 15.6 µM | TGI [9]: 29 µM | GI50 [10]: 15.5 µM | TGI [10]: 32.7 µM | GI50 [11]: 14.8 µM | TGI [11]: 29.9 µM | GI50 [12]: 14.8 µM | TGI [12]: 28 µM | GI50 [13]: 16.8 µM | TGI [13]: 34.3 µM | GI50 [56]: 20.2 µM | TGI [56]: 51.6 µM | GI50 [15]: 16.4 µM | TGI [15]: 32.1 µM | GI50 [16]: 23.3 µM | TGI [16]: 61.6 µM | GI50 [17]: 15.5 µM | TGI [17]: 29.5 µM | GI50 [18]: 18.1 µM | TGI [18]: 33.7 µM | GI50 [19]: 31.4 µM | TGI [19]: > 100 µM | GI50 [20]: 19.4 µM | TGI [20]: 43.9 µM | GI50 [21]: 17 µM | TGI [21]: 33.3 µM | GI50 [22]: 16.2 µM | TGI [22]: 29.7 µM | GI50 [23]: 15.7 µM | TGI [23]: 33.4 µM | GI50 [24]: 17.4 µM | TGI [24]: 31.7 µM | GI50 [25]: 13.8 µM | TGI [25]: 28.9 µM | GI50 [26]: 16.3 µM | TGI [26]: 33.2 µM | GI50 [27]: 17.1 µM | TGI [27]: 54.3 µM | GI50 [28]: 16 µM | TGI [28]: 31.6 µM | GI50 [30]: 17.4 µM | TGI [30]: 33.4 µM | GI50 [31]: 14.2 µM | TGI [31]: 29.5 µM | GI50 [57]: 39.7 µM | TGI [57]: > 100 µM | GI50 [32]: 15.8 µM | TGI [32]: 33.4 µM | GI50 [33]: 17.5 µM | TGI [33]: 35.6 µM | GI50 [34]: 16.4 µM | TGI [34]: 33.1 µM | GI50 [35]: 18.4 µM | TGI [35]: 42.2 µM | GI50 [36]: 15.9 µM | TGI [36]: 33.7 µM | GI50 [37]: 18.1 µM | TGI [37]: 50.7 µM | GI50 [39]: 18.5 µM | TGI [39]: 34.3 µM | GI50 [40]: 15 µM | TGI [40]: 33.4 µM | GI50 [41]: 18.4 µM | TGI [41]: 34.5 µM | GI50 [42]: 16.1 µM | TGI [42]: 31.1 µM | GI50 [43]: 16.6 µM | TGI [43]: 30.6 µM | GI50 [44]: 17.4 µM | TGI [44]: 31.1 µM | GI50 [45]: 20.3 µM | TGI [45]: 45 µM | GI50 [46]: 19.4 µM | TGI [46]: 35.3 µM | GI50 [47]: 17.7 µM | TGI [47]: 33.5 µM | GI50 [49]: 17.2 µM | TGI [49]: 31.1 µM | GI50 [50]: 17.4 µM | TGI [50]: 41.8 µM | GI50 [51]: 17.1 µM | TGI [51]: 39.5 µM | GI50 [52]: 16.6 µM | TGI [52]: 31.6 µM | GI50 [53]: 17.5 µM | TGI [53]: 36 µM | GI50 [54]: 13.6 µM | TGI [54]: 27.2 µM | GI50 [55]: 16.3 µM | TGI [55]: 32 µM
